Like-named read-outs stand apart in the source and are kept apart here.

Common to all, as to type: in vivo
Assay [1] deals with Beet Armyworm (Spodoptera exigua, LAPHEG). Put plainly: Bioassay on Beet Armyworm (BAW), 128-well diet tray assay. In short, it runs like this: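 Percent mortality, averaged across eight replicate wells, was scored after five to seven days at 25° C. under a 14:10 light-dark cycle. Each well's diet carried 50 μg/cm^2 of the dried test molecule and held one to five second instar larvae.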

Assay [2] has as its system Cabbage Looper (Trichoplusia ni, TRIPNI). Put plainly: Bioassay on Cabbage Looper (CL), 128-well diet tray assay. Particulars: Trichoplusia ni. In short, it runs like this:
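Diet-incorporation-free surface assay: 50 μg/cm^2 compound in acetone-water (90:10), dried on diet; 1–5 2nd-instar larvae/well; 8 wells; vented cover; 25° C., 14:10 L:D, 5–7 d; % mortality averaged over wells.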

Assay [3] has as its system Green Peach Aphid (Myzus persicae, MYZUPE). Put plainly: Bioassay on Green Peach Aphid (GPA), foliar spray on infested cabbage seedlings. The following applies: 72 h. The procedure:
Certain molecules disclosed in this document were tested against GPA using procedures described in the following example. In the reporting of the results, the “GPA & YFM Rating Table” was used (See Table Section).
Cabbage seedlings grown in 3-inch pots, with 2-3 small (3-5 cm) true leaves, were used as test substrate. The seedlings were infested with 20-50 GPA (wingless adult and nymph stages) one day prior to chemical application. Four pots with individual seedlings were used for each treatment. Test molecules (2 mg) were dissolved in 2 mL of acetone/methanol (1:1) solvent, forming stock solutions of 1000 ppm test molecule. The stock solutions were diluted 5× with 0.025% Tween 20 in water to obtain the solution at 200 ppm test molecule. A hand-held aspirator-type sprayer was used for spraying a solution to both sides of […] leaves until runoff. Reference plants (solvent check) were sprayed with the diluent only containing 20% by volume of acetone/methanol (1:1) solvent. Treated plants were held in a holding room for three days at approximately 25° C. and ambient relative humidity (RH) prior to grading. Evaluation was conducted by counting the number of live aphids per plant under a microscope. Percent control was measured using Abbott's correction formula (W. S. Abbott, “A Method of Computing the Effectiveness of an Insecticide” 3. Econ. Entomol. 18 (1925), pp. 265-267) as follows. Corrected % Control=100*(X−Y)/X where X=No. of live aphids on solvent check plants and Y=No. of live aphids on treated plants. The results are indicated in the table entitled “Table ABC: Biological Results” (See Table Section).

Assay [4] deals with Yellow Fever Mosquito (Aedes aegypti, AEDSAE). Put plainly: Bioassay on Yellow Fever Mosquito (YFM), 96-well plate larval assay. Particulars: Species YFM (Yellow Fever Mosquito). The essentials: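 Each well was scored for mortality after 3 days at room temperature under a non-evaporative lid. Test molecules came from DMSO masters (4000 ppm stock) diluted with water/acetone 90:10 and dispensed into six replicate plates, which were then infested with roughly 1-day-old larvae in liver-powder water.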

Where [5] appears, read: Species BAW (Beet Armyworm), read-out: BAW (Biological Results, rating).
Where [6] appears, read: Species CL (Cabbage Looper), read-out: CL (Biological Results, rating).
Setting [7] is: foliar, Species GPA (Green Peach Aphid), read-out: GPA (Biological Results, rating).

Consider `O=C(Nc1ccc(F)cc1)c1cc(NC(=O)[C@H]2[C@H](c3cc(Cl)cc(Cl)c3)C2(Cl)Cl)ccc1Cl` (relative stereo) [F1, trans-2-chloro-5-(2,2-dichloro-3-(3,5-dichlorophenyl)cyclopropane-1-carboxamido)-N-(4-fluorophenyl)benzamide], for which the pest or weed control at 50 µg/cm2 in assay [1] (setting [5]) and in assay [2] (setting [6]) was 50 to 100% each time. In assay [3] (setting [7]), the pest or weed control at 200 µg/mL was 0 to 80%. The “YFM (Biological Results, rating)” value in assay [4] is “A (80-100)”.

With `O=C(Nc1ccc(F)cc1)c1cccc(NC(=O)[C@H]2[C@H](c3cc(Cl)cc(Cl)c3)C2(Cl)Cl)c1` (relative stereo) [F2, trans-3-(2,2-Dichloro-3-(3,5-dichlorophenyl)cyclopropane-1-carboxamido)-N-(4-fluorophenyl)benzamide], the pest or weed control at 50 µg/cm2 in assay [1] (setting [5]) and in assay [2] (setting [6]) was 50 to 100% in each case. The pest or weed control at 200 µg/mL in assay [3] (setting [7]) lay in the range of 0 to 80%. Also, in assay [4], the “YFM (Biological Results, rating)” value is listed as “A (80-100)”.

As to `Cc1ccccc1NC(=O)c1cc(NC(=O)[C@H]2[C@H](c3cc(Cl)cc(Cl)c3)C2(Cl)Cl)ccc1Cl` (relative stereo) [F9, trans-2-Chloro-5-(2,2-dichloro-3-(3,5-dichlorophenyl)cyclopropane-1-carboxamido)-N-(o-tolyl)benzamide], the pest or weed control at 50 µg/cm2 in assay [1] (setting [5]) and in assay [2] (setting [6]) was 50 to 100% each time. Besides, the pest or weed control at 200 µg/mL in assay [3] (setting [7]) lay in the range of 80 to 100%. Further, the “YFM (Biological Results, rating)” value in assay [4] is “A (80-100)”.

For `Cc1ccc(NC(=O)[C@H]2[C@H](c3cc(Cl)cc(Cl)c3)C2(Cl)Cl)cc1C(=O)Nc1ccc(F)cc1` (relative stereo) [F10, trans-5-(2,2-Dichloro-3-(3,5-dichlorophenyl)cyclopropane-1-carboxamido)-N-(4-fluorophenyl)-2-methylbenzamide], the pest or weed control at 50 µg/cm2 in assay [1] (setting [5]) and in assay [2] (setting [6]) was 50 to 100% throughout. For the same compound, the pest or weed control at 200 µg/mL in assay [3] (setting [7]) is 0 to 80%. For the same compound, the “YFM (Biological Results, rating)” value in assay [4] is recorded as “A (80-100)”.

On to `O=C(Nc1ccc(F)cc1)c1cc(NC(=O)[C@H]2[C@H](c3cc(Cl)c(Cl)c(Cl)c3)C2(Cl)Cl)ccc1Cl` (relative stereo) [F13, trans-2-Chloro-5-(2,2-dichloro-3-(3,4,5-trichlorophenyl)cyclopropane-1-carboxamido)-N-(4-fluorophenyl)benzamide], for which the pest or weed control at 50 µg/cm2 in assay [1] (setting [5]) and in assay [2] (setting [6]) was 50 to 100% each time. For the same compound, the pest or weed control at 200 µg/mL in assay [3] (setting [7]) lay in the range of 0 to 80%. In assay [4], the “YFM (Biological Results, rating)” value is on record as “A (80-100)”.

For `O=C(Nc1ccc(F)cc1)c1cc(NC(=O)[C@H]2[C@H](c3ccc(Cl)c(Cl)c3)C2(Cl)Cl)ccc1Cl` (relative stereo) [F14, trans-2-Chloro-5-(2,2-dichloro-3-(3,4-dichlorophenyl)cyclopropane-1-carboxamido)-N-(4-fluorophenyl)benzamide], the pest or weed control at 50 µg/cm2 in assay [1] (setting [5]) and in assay [2] (setting [6]) was 50 to 100% in each case. In assay [3] (setting [7]), the pest or weed control at 200 µg/mL lay within 80 to 100%. The “YFM (Biological Results, rating)” value in assay [4] is on record as “A (80-100)”.

With `O=C(Nc1ccc(F)cc1)c1cccc(NC(=O)[C@H]2[C@H](c3cc(Cl)cc(Cl)c3)C2(Cl)Cl)c1F` (relative stereo) [F15, trans-3-(2,2-Dichloro-3-(3,5-dichlorophenyl)cyclopropane-1-carboxamido)-2-fluoro-N-(4-fluorophenyl)benzamide], the pest or weed control at 50 µg/cm2 in assay [1] (setting [5]) and in assay [2] (setting [6]) was 50 to 100% throughout. For the same compound, the pest or weed control at 200 µg/mL in assay [3] (setting [7]) lay within 0 to 80%. Further, the “YFM (Biological Results, rating)” value in assay [4] is reported as “A (80-100)”.

On to `O=C(Nc1ccccc1)c1cc(NC(=O)[C@H]2[C@H](c3cc(Cl)cc(Cl)c3)C2(Cl)Cl)ccc1Cl` (relative stereo) [F16, trans-2-Chloro-5-(2,2-Dichloro-3-(3,5-dichlorophenyl)cyclopropane-1-carboxamido)-N-phenylbenzamide], for which the pest or weed control at 50 µg/cm2 in assay [1] (setting [5]) and in assay [2] (setting [6]) was 50 to 100% in each case. Besides, the pest or weed control at 200 µg/mL in assay [3] (setting [7]) was in the range of 0 to 80%. Moreover, the “YFM (Biological Results, rating)” value in assay [4] is listed as “A (80-100)”.

For the compound `O=C(Nc1ccc(F)cc1F)c1cc(NC(=O)[C@H]2[C@H](c3cc(Cl)cc(Cl)c3)C2(Cl)Cl)ccc1Cl` (relative stereo) [F18, trans-2-Chloro-5-(2,2-dichloro-3-(3,5-dichlorophenyl)cyclopropane-1-carboxamido)-N-(2,4-difluorophenyl)benzamide], the pest or weed control at 50 µg/cm2 in assay [1] (setting [5]) and in assay [2] (setting [6]) was 50 to 100% in each case. For the same compound, in assay [3] (setting [7]), the pest or weed control at 200 µg/mL fell in the range of 80 to 100%. Besides, in assay [4], the “YFM (Biological Results, rating)” value is listed as “A (80-100)”.

As to `CN(C(=O)c1cc(NC(=O)[C@H]2[C@H](c3cc(Cl)cc(Cl)c3)C2(Cl)Cl)ccc1Cl)c1ccc(F)cc1` (relative stereo) [F19, trans-2-Chloro-5-(2,2-dichloro-3-(3,5-dichlorophenyl)cyclopropane-1-carboxamido)-N-(4-fluorophenyl)-N-methylbenzamide], the pest or weed control at 50 µg/cm2 in assay [1] (setting [5]) and in assay [2] (setting [6]) was 50 to 100% in each case. Further, the pest or weed control at 200 µg/mL in assay [3] (setting [7]) lay in the range of 80 to 100%. Moreover, the “YFM (Biological Results, rating)” value in assay [4] is “A (80-100)”.

For `O=C(Nc1cccc(F)c1)c1cc(NC(=O)[C@H]2[C@H](c3cc(Cl)cc(Cl)c3)C2(Cl)Cl)ccc1Cl` (relative stereo) [F20, trans-2-Chloro-5-(2,2-dichloro-3-(3,5-dichlorophenyl)cyclopropane-1-carboxamido)-N-(3-fluorophenyl)benzamide], the pest or weed control at 50 µg/cm2 in assay [1] (setting [5]) and in assay [2] (setting [6]) was 50 to 100% throughout. Also, the pest or weed control at 200 µg/mL in assay [3] (setting [7]) was 0 to 80%. The “YFM (Biological Results, rating)” value in assay [4] is “A (80-100)”.

`N#Cc1cccc(NC(=O)c2cc(NC(=O)[C@H]3[C@H](c4cc(Cl)cc(Cl)c4)C3(Cl)Cl)ccc2Cl)c1` (relative stereo) [F21, trans-2-Chloro-N-(3-cyanophenyl)-5-(2,2-dichloro-3-(3,5-dichlorophenyl)cyclopropane-1-carboxamido)benzamide]: the pest or weed control at 50 µg/cm2 in assay [1] (setting [5]) and in assay [2] (setting [6]) was 50 to 100% each time. Moreover, the pest or weed control at 200 µg/mL in assay [3] (setting [7]) lay in the range of 0 to 80%. Besides, in assay [4], the “YFM (Biological Results, rating)” value is given as “A (80-100)”.

On to `O=C(Nc1cccc(F)c1F)c1cc(NC(=O)[C@H]2[C@H](c3cc(Cl)cc(Cl)c3)C2(Cl)Cl)ccc1Cl` (relative stereo) [F22, trans-2-Chloro-5-(2,2-dichloro-3-(3,5-dichlorophenyl)cyclopropane-1-carboxamido)-N-(2,3-difluorophenyl)benzamide], for which the pest or weed control at 50 µg/cm2 in assay [1] (setting [5]) and in assay [2] (setting [6]) was 50 to 100% each time. Moreover, the pest or weed control at 200 µg/mL in assay [3] (setting [7]) fell in the range of 80 to 100%. The “YFM (Biological Results, rating)” value in assay [4] was “A (80-100)”.

`O=C(Nc1ccc(F)c(F)c1)c1cc(NC(=O)[C@H]2[C@H](c3cc(Cl)cc(Cl)c3)C2(Cl)Cl)ccc1Cl` (relative stereo) [F23, trans-2-Chloro-5-(2,2-dichloro-3-(3,5-dichlorophenyl)cyclopropane-1-carboxamido)-N-(3,4-difluorophenyl)benzamide]: the pest or weed control at 50 µg/cm2 in assay [1] (setting [5]) and in assay [2] (setting [6]) was 50 to 100% each time. The pest or weed control at 200 µg/mL in assay [3] (setting [7]) is 0 to 80%. The “YFM (Biological Results, rating)” value in assay [4] is listed as “A (80-100)”.

Consider `O=C(Nc1ccc(F)cc1)c1ccc(Cl)c(NC(=O)[C@H]2[C@H](c3cc(Cl)cc(Cl)c3)C2(Cl)Cl)c1` (relative stereo) [F130, trans-4-Chloro-3-(2,2-dichloro-3-(3,5-dichlorophenyl)cyclopropane-1-carboxamido)-N-(4-fluorophenyl)benzamide], for which the pest or weed control at 50 µg/cm2 in assay [2] (setting [6]) fell in the range of 50 to 100%. In assay [3] (setting [7]), the pest or weed control at 200 µg/mL is 0 to 80%. The “YFM (Biological Results, rating)” value in assay [4] was “B (More than 0-Less than 80)”.

For the compound `O=C(Nc1ccc(F)cc1)c1cc(NC(=O)C2C(c3cc(Cl)cc(Cl)c3)C2(F)Cl)ccc1Cl` (stereo not drawn) [PF153, 2-Chloro-5-(trans)-2-chloro-3-(3,5-dichlorophenyl)-2-fluorocyclopropane-1-carboxamido)-N-(4-fluorophenyl)benzamide], the pest or weed control at 50 µg/cm2 in assay [1] (Beet Armyworm, 128-well diet tray assay, read-out: BAW rating) was in the range of 50 to 100%; in assay [2] (Cabbage Looper, 128-well diet tray assay, read-out: CL rating), 50 to 100%. In addition, in assay [3] (Green Peach Aphid, foliar spray on cabbage seedlings, read-out: GPA rating), the pest or weed control at 200 µg/mL is 80 to 100%.

These data come from US10219516B2, “Molecules having pesticidal utility, and intermediates, compositions, and processes, related thereto” (priority 2015, dated 2019).
